Results: patent publication US8268848B2, “Cyclopropane compound” (Eisai R&D Management Co., Ltd., priority 2010, dated 2012)
Like-named read-outs stand apart in the source and are kept apart here.

Experiments:
OX2 = target: T1, OX2 (Homo sapiens, UniProt O43614); assay: Measurement of orexin receptor-binding ability ([125I]-OX-A, cell membranes, OX2); parameters: expressed in transfected cells; host or cells: CHO cells (membrane preparation); conditions: membranes of recombinant CHO cells expressing OX2, 0.2 nM [125I]-OX-A
T1 sequence (O43614 1-444): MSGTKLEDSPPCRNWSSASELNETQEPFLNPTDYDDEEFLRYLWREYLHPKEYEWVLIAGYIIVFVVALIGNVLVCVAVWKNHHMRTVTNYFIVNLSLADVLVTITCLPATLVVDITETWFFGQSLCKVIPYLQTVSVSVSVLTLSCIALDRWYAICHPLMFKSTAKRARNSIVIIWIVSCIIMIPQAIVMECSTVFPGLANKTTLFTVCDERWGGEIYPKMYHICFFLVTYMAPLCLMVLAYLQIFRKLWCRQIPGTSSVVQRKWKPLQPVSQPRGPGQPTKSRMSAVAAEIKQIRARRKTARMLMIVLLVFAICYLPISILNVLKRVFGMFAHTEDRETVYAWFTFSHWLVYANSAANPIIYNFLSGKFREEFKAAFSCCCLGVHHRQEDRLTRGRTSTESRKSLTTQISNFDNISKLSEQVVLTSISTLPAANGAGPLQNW
Experimental: (§1) 1. Measurement of Orexin Receptor-Binding Ability
(§2) The assay was carried out using a 96-well Wheat Germ Agglutinin Flash Plate (PerkinElmer). The volume in a single assay well was 100 ul, and the composition of the reaction solution was as follows:
(§3) 25 mM HEPES (pH 7.5), 1 mM CaCl2, 4.5 mM MgCl2, 0.5% BSA (bovine serum albumin), 0.1% sodium azide, 0.05% Tween-20, and 0.2% DMSO.
(§4) Cell membranes were prepared from recombinant CHO cells that expressed OX2 or OX1. The cell membranes were used in an amount of 5 μg protein/assay. […] Finally, the radioactivity of each well was measured using a scintillation counter (TopCount, PerkinElmer).

OX1 = target: T2, OX1 (Homo sapiens, UniProt O43613); assay: Measurement of orexin receptor-binding ability ([125I]-OX-A, cell membranes, OX1); parameters: expressed in transfected cells; host or cells: CHO cells (membrane preparation)
T2 sequence (O43613 1-425): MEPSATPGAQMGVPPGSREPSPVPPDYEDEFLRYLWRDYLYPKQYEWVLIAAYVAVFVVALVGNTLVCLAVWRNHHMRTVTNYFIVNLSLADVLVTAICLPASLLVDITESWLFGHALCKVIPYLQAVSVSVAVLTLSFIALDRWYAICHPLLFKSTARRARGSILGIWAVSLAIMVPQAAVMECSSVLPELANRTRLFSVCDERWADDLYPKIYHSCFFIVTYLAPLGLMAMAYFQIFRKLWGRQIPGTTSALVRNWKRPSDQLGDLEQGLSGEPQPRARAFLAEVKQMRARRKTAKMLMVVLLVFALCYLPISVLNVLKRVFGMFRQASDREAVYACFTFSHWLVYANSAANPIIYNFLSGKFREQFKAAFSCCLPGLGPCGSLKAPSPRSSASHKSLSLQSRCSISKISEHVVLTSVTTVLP
Experimental: as §1, §2, §3, §4

[1] = membranes of recombinant CHO cells expressing OX1, 0.2 nM [125I]-OX-A, read-out: OX1 (IC50)

| SMILES | IC50 (OX2; read-out: OX2 (IC50)) [nM] | IC50 (OX1; [1]) [nM] | IC50 (OX2; OX2 (IC50) nM) [nM] | IC50 (OX1) [nM] |
| --- | --- | --- | --- | --- |
| Cc1ncc(N(C)C[C@@]2(c3ccccc3)C[C@H]2C(=O)Nc2ccc(F)cc2)c(C)n1 [Example 300] | 34 | 495 | – | – |
| CCc1ncc(OC[C@@]2(c3ccccc3)C[C@H]2C(=O)Nc2ccc(F)cn2)c(C)n1 [Example 313] | – | – | 107 | 224 |
| Cc1cccc(C2(COc3cnc(C)nc3C)CC2C(=O)Nc2ccc(F)cn2)c1 (stereo not drawn) [Example 176] | – | – | 26 | 137 |
| Cc1ncc(OC[C@@]2(c3ccccc3)C[C@H]2C(=O)Nc2cccc(Cl)c2)c(C)n1 [Example 24, (1R,2S)-N-(3-chlorophenyl)-2-{[(2,4-dimethylpyrimidin-5-yl)oxy]methyl}-2-phenylcyclopropanecarboxamide] | 7 | 28 | – | – |
| COCc1nc(C)ncc1OC[C@@]1(c2ccccc2)C[C@H]1C(=O)Nc1nc(C)cs1 [Example 142] | 36 | 331 | – | – |
| Cc1ncc(OC[C@@]2(c3cccs3)C[C@H]2C(=O)Nc2ccc(Cl)cn2)c(C)n1 [Example 267] | 64 | 118 | – | – |
| Cc1ncc(OC[C@@]2(c3ccccc3)C[C@H]2C(=O)Nc2cc(F)nc(F)c2)c(C)n1 [Example 76-2, (1R,2S)-N-(2,6-difluoropyridin-4-yl)-2-{[(2,4-dimethylpyrimidin-5-yl)oxy]methyl}-2-phenylcyclopropanecarboxamide] | 47 | 914 | – | – |
| Cc1ncc(OC[C@@]2(c3ccccc3)C[C@H]2C(=O)Nc2cccc(F)n2)c(C)n1 [Example 68] | – | – | 56 | 140 |
| Cc1ncc(OC[C@@]2(c3ccccc3)C[C@H]2C(=O)Nc2cccc(-c3nnc[nH]3)c2)c(C)n1 [Example 38] | 29 | 518 | – | – |
| Cc1ncc(OC[C@@]2(c3ccc(F)c(F)c3)C[C@H]2C(=O)Nc2ccccn2)c(C)n1 [Example 166, (1R,2S)-2-(3,4-difluorophenyl)-2-{[(2,4-dimethylpyrimidin-5-yl)oxy]methyl}-N-(pyridin-2-yl)cyclopropanecarboxamide] | – | – | 7 | 50 |
| COc1cccc(NC(=O)[C@@H]2C[C@@]2(COc2cnc(C)nc2C)c2ccccc2)c1 [Example 36, (1R,2S)-2-{[(2,4-dimethylpyrimidin-5-yl)oxy]methyl}-N-(3-methoxyphenyl)-2-phenylcyclopropanecarboxamide] | 3 | 9 | – | – |
| Cc1ncc(OC[C@@]2(c3ccccc3)C[C@H]2C(=O)Nc2cnc(Cl)c(Br)c2)c(C)n1 [Example 59] | 51 | 1410 | – | – |
| COCc1nc(C)ncc1OC[C@@]1(c2cc(F)cc(OC)c2)C[C@H]1C(=O)Nc1ccc(F)c(F)c1 [Example 232, (1R,2S)-N-(3,4-difluorophenyl)-2-(3-fluoro-5-methoxyphenyl)-2-{[(4-methoxymethyl-2-methylpyrimidin-5-yl)oxy]methyl}cyclopropanecarboxamide] | 3 | 1 | – | – |
| Cc1ncc(OC[C@@]2(c3cccc(F)c3)C[C@H]2C(=O)Nc2ccccc2)c(C)n1 [Example 93, (1R,2S)-2-{[(2,4-dimethylpyrimidin-5-yl)oxy]methyl}-2-(3-fluorophenyl)-N-phenylcyclopropanecarboxamide] | – | – | 9 | 54 |
| Cc1ncc(OC[C@@]2(c3ccccc3)C[C@H]2C(=O)Nc2ccccc2F)c(C)n1 [Example 78] | – | – | 94 | 662 |
| Cc1ncc(NC[C@@]2(c3cccc(F)c3)C[C@H]2C(=O)Nc2ccc(F)cn2)c(C(F)(F)F)n1 [Example 302, (1R,2S)-2-(3-fluorophenyl)-N-(5-fluoropyridin-2-yl)-2-[N-(2-methyl-4-trifluoromethylpyrimidin-5-yl)aminomethyl]cyclopropanecarboxamide] | 3 | 8 | – | – |
| Cc1ncc(OC[C@@]2(c3cccc(F)c3)C[C@H]2c2nc3ccc(Cl)cc3c(=O)[nH]2)c(C)n1 [Example 311] | 3.1 | 23 | – | – |

| SMILES | IC50 (OX2; read-out: OX2 (IC50)) [nM] | IC50 (OX1; [1]) [nM] | IC50 (OX2; OX2 (IC50) nM) [nM] | IC50 (OX1) [nM] |
| --- | --- | --- | --- | --- |
| COCc1nc(C)ncc1OC[C@@]1(c2cc(F)cc(OC)c2)C[C@H]1C(=O)Nc1cccc(F)c1 [Example 236, (1R,2S)-2-(3-fluoro-5-methoxyphenyl)-N-(3-fluorophenyl)-2-{[(4-methoxymethyl-2-methylpyrimidin-5-yl)oxy]methyl}cyclopropanecarboxamide] | – | – | 5 | 21 |
| COc1cccc([C@]2(COc3cnc(C)nc3C)C[C@H]2C(=O)Nc2ccc(F)c(F)c2)c1 [Example 190, (1R,2S)-N-(3,4-difluorophenyl)-2-{[(2,4-dimethylpyrimidin-5-yl)oxy]methyl}-2-(3-methoxyphenyl)cyclopropanecarboxamide] | 5 | 11 | – | – |
| CCc1nc(C)ncc1OC[C@@]1(c2ccccc2)C[C@H]1C(=O)Nc1ccc(F)cc1 [Example 318] | 11 | 135 | – | – |
| COCc1nc(C)ncc1OC[C@@]1(c2cc(F)cc(OC)c2)C[C@H]1C(=O)Nc1cc(C)c(F)cn1 [Example 234, (1R,2S)-2-(3-fluoro-5-methoxyphenyl)-N-(5-fluoro-4-methylpyridin-2-yl)-2-{[(4-methoxymethyl-2-methylpyrimidin-5-yl)oxy]methyl}cyclopropanecarboxamide] | 4 | < 2 | – | – |
| Cc1ncc(OC[C@@]2(c3ccccc3)C[C@H]2C(=O)Nc2cccc(C#N)c2)c(C)n1 [Example 80] | – | – | 16 | 54 |
| Cc1ncc(OC[C@@]2(c3ccc(F)c(F)c3)C[C@H]2C(=O)Nc2ccc(C#N)cn2)c(C)n1 [Example 167, (1R,2S)-N-(5-cyanopyridin-2-yl)-2-(3,4-difluorophenyl)-2-{[(2,4-dimethylpyrimidin-5-yl)oxy]methyl}cyclopropanecarboxamide] | – | – | 10 | 38 |
| Cc1ncc(OCC2(c3cccc(C(F)(F)F)c3)CC2C(=O)Nc2ccc(C#N)cn2)c(C)n1 (stereo not drawn) [Example 264] | 23 | 792 | – | – |
| Cc1ncc(N(C)C[C@@]2(c3ccccc3)C[C@H]2C(=O)Nc2cc(C)c(F)cn2)c(C)n1 [Example 299] | 46 | 304 | – | – |
| Cc1ncc(OC[C@@]2(c3ccccc3)C[C@H]2C(=O)Nc2ccc(F)nc2)c(C)n1 [Example 53] | 18 | 261 | – | – |
| COc1cc(NC(=O)[C@@H]2C[C@@]2(COc2cnc(C)nc2C)c2cccc(F)c2)ncc1F [Example 94, (1R,2S)-2-{[(2,4-dimethylpyrimidin-5-yl)oxy]methyl}-N-(5-fluoro-4-methoxypyridin-2-yl)-2-(3-fluorophenyl)cyclopropanecarboxamide] | – | – | 2.3 | 2.8 |
| Cc1ncc(OC[C@@]2(c3ccccc3)C[C@H]2C(=O)Nc2ccc3ccncc3c2)c(C)n1 [Example 13] | 71 | 1240 | – | – |
| Cc1ncc(OCC2(c3cc(F)ccc3F)CC2C(=O)Nc2ccc(F)cn2)c(C)n1 (stereo not drawn) [Example 163, 2-(2,5-difluorophenyl)-2-{[(2,4-dimethylpyrimidin-5-yl)oxy]methyl}-N-(5-fluoropyridin-2-yl)cyclopropanecarboxamide] | – | – | 10 | < 20 |
| Cc1ncc(N(C)C[C@@]2(c3ccccc3)C[C@H]2C(=O)Nc2cc(C)c(Cl)cn2)c(C)n1 [Example 301] | 28 | 175 | – | – |
| CCc1nc(C)ncc1OC[C@@]1(c2cccc(F)c2)C[C@H]1C(=O)Nc1ccc(Cl)cn1 [Example 243, (1R,2S)-N-(5-chloropyridin-2-yl)-2-{[(4-ethyl-2-methylpyrimidin-5-yl)oxy]methyl}-2-(3-fluorophenyl)cyclopropanecarboxamide] | – | – | 3.3 | 2 |
| Cc1ncc(OCC2(c3cccc(F)c3)CC2C(=O)Nc2cccnc2)c(C)n1 (stereo not drawn) [Example 99] | – | – | 58 | 644 |
| Cc1ncc(OC[C@@]2(c3ccccc3)C[C@H]2C(=O)Nc2cc(Cl)cc(C#N)c2)c(C)n1 [Example 35] | 43 | 558 | – | – |
